In the assay the target is T1, Endothelin-1 receptor (Homo sapiens, UniProt P25101).
T1 sequence (P25101 whole entry): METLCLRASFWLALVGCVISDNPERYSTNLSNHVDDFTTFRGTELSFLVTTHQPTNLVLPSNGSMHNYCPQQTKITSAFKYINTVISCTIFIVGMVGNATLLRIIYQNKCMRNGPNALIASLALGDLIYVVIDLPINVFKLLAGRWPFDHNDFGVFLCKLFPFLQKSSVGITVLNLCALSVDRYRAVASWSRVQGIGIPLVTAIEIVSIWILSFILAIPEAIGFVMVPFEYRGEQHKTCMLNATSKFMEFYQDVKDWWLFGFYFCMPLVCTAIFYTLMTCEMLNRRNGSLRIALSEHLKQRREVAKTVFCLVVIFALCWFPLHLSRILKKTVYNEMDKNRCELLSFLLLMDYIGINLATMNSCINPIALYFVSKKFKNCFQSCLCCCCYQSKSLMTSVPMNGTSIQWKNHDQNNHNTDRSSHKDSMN
The experiment in a line: Potency at Endothelin A receptor was determined.

Experimental findings from ChEMBL document CHEMBL1145852, “Drug rings database with web interface. A tool for identifying alternative chemical rings in lead discovery programs” (J Med Chem, 2003) are described below.

Molecules are shown by their SMILES.

In the case of `CCCOc1ccc2c(c1)c(-c1ccc3c(c1)OCO3)c(C(=O)O)n2Cc1ccc2nonc2c1`, 2.5 µM corresponded to half-maximal inhibition (IC50).
Turning to `CCCOc1ccc2c(c1)c(-c1ccc3c(c1)OCO3)c(C(=O)O)n2Cc1ccc2c(c1)OCO2`, the IC50 is 0.25 µM.
For the compound `COc1cc2c(-c3ccc4c(c3)OCO4)c(C(=O)O)n(Cc3ccc4c(c3)OCO4)c2cc1OC`, half-maximal inhibition (IC50) required 0.15 µM.
Next, `CCCOc1ccc2c(c1)c(-c1ccc3c(c1)OCO3)c(C(=O)O)n2Cc1ccc2nsnc2c1`: 0.097 µM; `COc1cc2c(-c3ccc4c(c3)OCO4)c(C(=O)O)n(Cc3ccc4nsnc4c3)c2cc1OC`: 0.033 µM.

Broadly, the IC50 is the point on the concentration scale where inhibition reaches its midpoint. Read a high IC50 as weaker potency in that assay.
